# According to patent US5910504A, “Hetero-aromatic ring substituted phenyloxazolidinone antimicrobials” (Pharmacia & Upjohn, priority 1997, dated 1999):
# Several values for one entry are separate records, joined by “and”; a condition that tells them apart may be missing. Equal values may be shown once. Read-outs that look alike come from different tables or passages of the source.
# Experiments:
# S. pneumoniae, UC 9912 = assay: In vitro activity: minimum inhibitory concentration (MIC) by agar dilution, S. pneumoniae; format: cell-based; details: Streptococcus pneumoniae
# Text: (§1) The oxazolidinone antibacterial agents of this invention have useful activity against a variety of organisms. The in vitro activity of compounds of this invention can be assessed by standard testing procedures such as the determination of minimum inhibitory concentration (MIC) by agar dilution as desribed in "Methods for Dilution Antimicrobial Susceptibility Tests for Bacteria That Grow Aerobically" (MFT) published January 1983 by the National Committee for Clinical Laboratory Standards, 771 East Lancaster Avenue, Villanova, Pa. 19084, USA. The activity of selected compounds of this invention against Staphylococcus aureus and Streptococcus pneumoniae are shown in Table 1.
# S. aureus, UC 9213 [1] = assay: In vitro activity: minimum inhibitory concentration (MIC) by agar dilution, S. aureus; format: cell-based; details: Staphylococcus aureus
# Text: as §1
# S. aureus, UC 9213 [2] = assay: In vivo antimicrobial activity, Murine Assay procedure; parameters: species or system Staphylococcus aureus (infected female mice); details: oral or subcutaneous; for ED50: Staphylococcus aureus, UC9213, 144 h
# Procedure: Antimicrobial activity was tested in vivo using the Murine Assay procedure. Groups of female mice (six mice of 18-20 grams each) were injected intraperitoneally with bacteria which were thawed just prior to use and suspended in brain heart infusion with 4% brewers yeast UC9213 (Staphylococcus aureus) or brain heart infusion (Streptococcus species). Antibiotic treatment at six dose levels per drug was administered one hour and five hours after infection by either oral intubation or subcutaneous ("subcut.") routes. Survival was observed daily for six days. ED50 values based on mortality ratios were calculated using probit analysis. The subject compounds were compared against a well-known antimicrobial (Vancomycin) as a control.
# [3] = UC9912, agar dilution, read-out: Minimum Inhibitory Concentration, S. pneumoniae, UC 9912
# [4] = UC9213, agar dilution, read-out: Minimum Inhibitory Concentration, S. aureus, UC 9213
# [5] = female mice, i.p. infection, drug 1 h and 5 h after infection, six-day survival, probit, read-out: ED50, S. aureus, UC 9213
"MIC (S. pneumoniae, UC 9912; [3])","MIC (S. aureus, UC 9213 [1]; [4])",SMILES,also measured
< 0.5 µg/mL,< 0.5 µg/mL,"CC(=O)NC[C@H]1CN(c2ccc(-n3cccc3)c(F)c2)C(=O)O1 [Example 1, (S)-N-[[3-[3-Fluro-4-(1H-pyrrol-1-yl)phenyl]-2-oxo-5-oxazolidinyl]methyl]acetamide]",
1 µg/mL,2 µg/mL,"CC(=O)NC[C@H]1CN(c2ccc(-n3cccn3)c(F)c2)C(=O)O1 [Example 2, (S)-N-[[3-[3-Fluoro-4-(1H-pyrazol-1-yl)phenyl]-2-oxo-5-oxazolidinyl]methyl]acetamide]",
< 0.5 µg/mL,2 µg/mL,"CC(=O)NC[C@H]1CN(c2ccc(-n3ccnc3)c(F)c2)C(=O)O1 [Example 3, (S)-N-[[3-[3-Fluoro-4-(1H-imidazol-1-yl)phenyl]-2-oxo-5-oxazolidinyl]methyl]acetamide]","ED50 (S. aureus, UC 9213 [2]; [5]): 9.5 mg/kg"
1 µg/mL,4 µg/mL,"CC(=O)NC[C@H]1CN(c2ccc(-n3cncn3)c(F)c2)C(=O)O1 [Example 4, (S)-N-[[3-[3-Fluoro-4-(1H-1,2,4-triazol-1-yl)phenyl]-2-oxo-5-oxazolidinyl]methyl]acetamide]","ED50 (S. aureus, UC 9213 [2]; [5]): 5.7 mg/kg"
1 µg/mL,4 µg/mL,"CC(=O)NC[C@H]1CN(c2ccc(-n3ccc4ccccc43)c(F)c2)C(=O)O1 [Example 5, (S)-N-[[3-[3-Fluoro-4-(1H-indol-1-yl)phenyl]-2-oxo-5-oxazolidinyl]methyl]acetamide]",
< 0.5 µg/mL,1 µg/mL,"CC(=O)NC[C@H]1CN(c2ccc(-n3ccnn3)c(F)c2)C(=O)O1 [Example 6, (S)-N-[[3-[3-Fluoro-4-(1H-1,2,3-triazol-1-yl)phenyl]-2-oxo-5-oxazolidinyl]methyl]acetamide]","ED50 (S. aureus, UC 9213 [2]; [5]): 4.7 mg/kg"
< 0.5 µg/mL,1 µg/mL,"O=C(NC[C@H]1CN(c2ccc(-n3ccnn3)c(F)c2)C(=O)O1)C(Cl)Cl [Example 7, (S)-N-[[3-[3-Fluoro-4-(1H-1,2,3-triazol-1-yl)phenyl]-2-oxo-5-oxazolidinyl]methyl]-2,2-dichloroacetamide]","ED50 (S. aureus, UC 9213 [2]; [5]): 11.9 mg/kg"
1 µg/mL,4 µg/mL,"CC(=O)NC[C@H]1CN(c2ccc(-n3nccn3)c(F)c2)C(=O)O1 [Example 8, (S)-N-[[3-[3-Fluoro-4-(2H-1,2,3-triazol-2-yl)phenyl]-2-oxo-5-oxazolidinyl]methyl]acetamide]",
8 µg/mL,> 32 µg/mL,"CC(=O)NC[C@H]1CN(c2ccc(-n3cnnc3S)c(F)c2)C(=O)O1 [Example 9, (S)-N-[[3-[3-Fluoro-4-(3-mercapto-4H-1,2,4-triazol-4-yl)phenyl]-2-oxo-5-oxazolidinyl]methyl]acetamide]",
1 µg/mL,8 µg/mL,"CSc1nncn1-c1ccc(N2C[C@H](CNC(C)=O)OC2=O)cc1F [Example 10, (S)-N-[[3-[3-Fluoro-4-(3-methylthio-4H-1,2,4-triazol-4-yl)phenyl]-2-oxo-5-oxazolidinyl]methyl]acetamide]",
1 µg/mL,> 16 µg/mL,"CC(=O)NC[C@H]1CN(c2ccc(-n3cnnc3)c(F)c2)C(=O)O1 [Example 11, (S)-N-[[3-[3-Fluoro-4-(4H-1,2,4-triazol-4-yl)phenyl]-2-oxo-5-oxazolidinyl]methyl]acetamide]",
< 0.06 µg/mL,0.25 µg/mL,"CC(=O)NC[C@H]1CN(c2ccc(-n3ccc(C=O)c3)c(F)c2)C(=O)O1 [Example 12, (S)-N-[[3-[3-Fluoro-4-(1H-pyrrol-1-yl-3-carboxaldehyde)phenyl]-2-oxo-5-oxazolidinyl]methyl]acetamide]",
0.25 µg/mL,1 µg/mL,"CC(=O)NC[C@H]1CN(c2ccc(-n3ccc(CO)c3)c(F)c2)C(=O)O1 [Example 13, (S)-N-[[3-[3-Fluoro-4-(3-hydroxymethyl-1H-pyrrol-1-yl)phenyl]-2-oxo-5-oxazolidinyl]methyl]acetamide]",
0.25 µg/mL,2 µg/mL,"COC(=O)c1ccn(-c2ccc(N3C[C@H](CNC(C)=O)OC3=O)cc2F)c1 [Example 14, (S)-N-[[3-[3-Fluoro-4-(3-carbomethoxy-1H-pyrrol-1-yl)phenyl]-2-oxo-5-oxazolidinyl]methyl]acetamide]",
0.25 µg/mL,1 µg/mL,"CON=Cc1ccn(-c2ccc(N3C[C@H](CNC(C)=O)OC3=O)cc2F)c1 [Example 15, (S)-N-[[3-[3-Fluoro-4-(1H-pyrrol-1-yl-3-carboxaldehyde)phenyl]-2-oxo-5-oxazolidinyl]methyl]acetamide, methoxime]","ED50 (S. aureus, UC 9213 [2]; [5]): 7.3 mg/kg"
< 0.25 µg/mL,1 µg/mL,"CC(=O)NC[C@H]1CN(c2ccc(-n3ccc(C=NO)c3)c(F)c2)C(=O)O1 [Example 16, (S)-N-[[3-[3-Fluoro-4-(3-(hydroxyiminomethyl)-1H-pyrrol-1-yl)phenyl]-2-oxo-5-oxazolidinyl]methyl]acetamide]","ED50 (S. aureus, UC 9213 [2]; [5]): 5.5 mg/kg"
0.5 µg/mL,1 µg/mL,"CC(=O)NC[C@H]1CN(c2ccc(-n3cc(C(C)=O)nn3)c(F)c2)C(=O)O1 [Example 17, (S)-N-[[3-[3-Fluoro-4-(4-acetyl-1H-1,2,3-triazol-1-yl)phenyl]-2-oxo-5-oxazolidinyl]methyl]acetamide]",
0.5 µg/mL,4 µg/mL,"CC(=O)NC[C@H]1CN(c2ccc(-n3cc(C(C)O)nn3)c(F)c2)C(=O)O1 (stereo partly drawn) [Example 18, (S)-N-[[3-[3-Fluoro-4-(4-(1-hydroxyethyl)-1H-1,2,3-triazol-1-yl)phenyl]-2-oxo-5-oxazolidinyl]methyl]acetamide]",
0.5 µg/mL,4 µg/mL,CC(=O)NC[C@H]1CN(c2ccc(-n3cc(C(C)=NO)nn3)c(F)c2)C(=O)O1 [Example 19],
1 µg/mL,4 µg/mL,"COC(=O)c1cn(-c2ccc(N3C[C@H](CNC(C)=O)OC3=O)cc2F)nn1 [Example 20, (S)-N-[[3-[3-Fluoro-4-(4-carbomethoxy-1H-1,2,3-triazol-1-yl)phenyl]-2-oxo-5-oxazolidinyl]methyl]acetamide]",
0.25 µg/mL,0.5 µg/mL,"CC(=O)NC[C@H]1CN(c2ccc(-n3cc(C=O)nn3)c(F)c2)C(=O)O1 [Example 21, (S)-N-[[3-[3-Fluoro-4-(1H-1,2,3-triazol-1-yl-4-carboxaldehyde)phenyl]-2-oxo-5-oxazolidinyl]methyl]acetamide]",
0.5 µg/mL,8 µg/mL,"CC(=O)NC[C@H]1CN(c2ccc(-n3cc(CO)cn3)c(F)c2)C(=O)O1 [Example 22, (S)-N-[[3-[3-Fluoro-4-(4-hydroxymethyl-1H-pyrazol-1-yl)phenyl]-2-oxo-5-oxazolidinyl]methyl]acetamide]",
0.5 µg/mL,4 µg/mL,"CCOC(=O)C=Cc1ccn(-c2ccc(N3C[C@H](CNC(C)=O)OC3=O)cc2F)c1 [Example 23, (S)-N-[[3-[3-Fluoro-4-[3-(2-carboethoxyvinyl)-1H-pyrrol-1-yl]phenyl]-2-oxo-5-oxazolidinyl]methyl]acetamide]",
0.5 µg/mL,4 µg/mL,"CCOC(=O)CCc1ccn(-c2ccc(N3C[C@H](CNC(C)=O)OC3=O)cc2F)c1 [Example 24, (S)-N-[[3-[3-Fluoro-4-[3-(2-carboethoxyethyl)-1H-pyrrol-1-yl]phenyl]-2-oxo-5-oxazolidinyl]methyl]acetamide]",
0.5 µg/mL,4 µg/mL,"CC(=O)NC[C@H]1CN(c2ccc(-n3ccc(CCCO)c3)c(F)c2)C(=O)O1 [Example 25, (S)-N-[[3-[3-Fluoro-4-[3-(3-hydroxypropyl)-1H-pyrrol-1-yl]phenyl]-2-oxo-5-oxazolidinyl]methyl]acetamide]",
0.5 µg/mL,8 µg/mL,"CC(=O)NC[C@H]1CN(c2ccc(-n3ccc(CCCNS(C)(=O)=O)c3)c(F)c2)C(=O)O1 [Example 26, (S)-N-[[3-[3-Fluoro-4-[3-(3-methanesulfonylaminopropyl)-1H-pyrrol-1-yl]phenyl]-2-oxo-5-oxazolidinyl]methyl]acetamide]",
,,"CN[C@H](CC(C)C)C(=O)N[C@H]1C(=O)N[C@@H](CC(N)=O)C(=O)N[C@H]2C(=O)N[C@H]3C(=O)N[C@H](C(=O)N[C@H](C(=O)O)c4cc(O)cc(O)c4-c4cc3ccc4O)[C@H](O)c3ccc(c(Cl)c3)Oc3cc2cc(c3O[C@@H]2O[C@H](CO)[C@@H](O)[C@H](O)[C@H]2O[C@H]2C[C@](C)(N)[C@H](O)[C@H](C)O2)Oc2ccc(cc2Cl)[C@H]1O [Vancomycin, reference compound]","ED50 (S. aureus, UC 9213 [2]; read-out: Control, ED50, control drug run alongside each test compound, S. aureus UC 9213, female mice): 2.2 mg/kg; Control, ED50 (S. aureus, UC 9213 [2]; control drug run alongside each test compound, S. aureus UC 9213, female mice, 8640 min): 2.4 mg/kg and 2.0 mg/kg and 1.2 mg/kg; MIC (S. pneumoniae, UC 9912; UC9912, read-out: Minimum Inhibitory Concentration, S. pneumoniae, UC 9912): 0.5 µg/mL; MIC (S. aureus, UC 9213 [1]; UC9213, read-out: Minimum Inhibitory Concentration, S. aureus, UC 9213): 1 µg/mL"
